Measured values reported in patent US20080063628A1, “METHODS TO PROMOTE CELL DIFFERENTIATION” (priority 2006, published 2008).

System: late passage (P14) pancreatic-derived stromal cell line
Assay: Single trichostatin A dose, 144 h follow-up, gene expression by RT-PCR (Example 6)
Assay type: cell-based, human
Settings: 1.25 μM once at 0 h
Method: Several cell lines obtained from different amniotic fluid specimens (see Example 14) and pancreas donors (see Example 13) were tested with similar results. Two lines at similar passage number but derived from different amniotic fluid specimens are shown in Table VI-A and Table VI-B for this example. One of these cell lines was also used in examples 2 and 4 above. In addition, this example also contains comparison data in Table VI-C and Table VI-D for a single pancreatic-derived stromal line grown to early and late passage number.
Amniotic fluid derived cells or pancreatic-derived stromal cells were seeded into 24-well tissue culture plates at a density of 5000/cm^2 and cultured in AMNIOMAX (Invitrogen) or DMEM with 10% FBS, respectively, under standard cell culture conditions until confluent. After the cells reached confluency, amniotic fluid derived cells were treated once at time 0 hours with 500 nM trichostatin A. Pancreas-derived stromal cells were treated once at time 0 hours with 1.25 μM trichostatin A. Samples for RT-PCR were taken daily from zero to six days at the times indicated in Table VI.
RNA samples were obtained from the treated cultures up to 144 hours after the initial addition of trichostatin A or DMSO. Culture media was removed, the cells were washed with PBS, and RLT lysis buffer containing β-mercaptoethanol (Qiagen) was added. During culture, the medium was not changed nor was freshly prepared trichostatin A added. RNA was purified using the RNeasy Mini Kit (Qiagen), and RNA quantity and quality was determined using a spectrophotometer. cDNA was made using the iScript cDNA synthesis kit (BioRad).
Samples of 20 ng cDNA were used in each reaction to determine the expression levels of the following genes in amniotic fluid-derived cells: Gata1, HNF-3 beta, Pdx-1, insulin, and Sox17. Similarly, samples of 20 ng cDNA were used in each reaction to determine the expression level of the following genes in pancreatic-derived stromal cells: glucagon, HNF-3 beta, insulin and Pdx-1. Real-Time PCR was performed on the Applied Biosystems 7500, and data was analyzed using the accompanying software according to the methods described in Example 15.
Real-time PCR amplifcation and quantitative analysis. Unless otherwise stated, all reagents were purchased from Applied Biosystems. Real-time PCR reactions were performed using the ABI PRISM™ 7500 Sequence Detection System. TAQMAN™ FAST UNIVERSAL PCR MASTER MIX™ (ABI, CA) was used with 20 ng of reverse transcribed RNA in a total reaction volume of 20 μl. Each cDNA sample was run in duplicate to allow correction of pipetting errors. Primers and FAM-labeled TAQMAN™ probes were used at concentrations of 200 nM. The level of expression for each target gene was normalized using the pre-developed Applied Biosystem's human glyceraldehyde-3-phosphate dehydrogenase (GAPDH) endogenous control kit. Primers and probes were designed using either ABI PRISM PRIMER EXPRESS™ software or a pre-developed ABI gene analysis kit. For each gene, either one of the primers or the probe were designed to be exon-boundary spanning. This eliminated the possibility of the primers/probe binding to any genomic DNA present. The primer and probe sets are listed as follows: Pdx-1 (Hs00426216), Insulin (Hs00355773), glucagon (Hs00174967), and FoxA2 (HNF 3-beta) (Hs00232764). The remaining primers were designed using the PRIMERS program (ABI, CA). After an initial 95° C. incubation for 20 sec, samples were cycled 40 times in two stages: a denaturation step at 95° C. for 3 sec, followed by an annealing/extension step at 60° C. for 30 sec.
For each primer/probe set, a cycle time value was determined as the cycle number at which the fluorescence intensity of the PCR reaction reached a specific value in the middle of the exponential region of amplification. An increase in expression of a gene corresponded to a decrease in the number of cycles required for the fluorescence intensity to reach this value.

With `CC(/C=C/C(=O)NO)=C\[C@@H](C)C(=O)c1ccc(N(C)C)cc1` [trichostatin A] the “HNF (HNF-3 beta) gene expression” value (24 hrs) was “+ (detectable between 35 and 40 cycles RT-PCR)”, the Insulin gene expression (24 hrs) was “nd (not detectable at >40 cycles by RT-PCR)” and the Pdx-1 gene expression (24 hrs) was “+++ (detectable at less than 35 cycles RT-PCR with SE less than 0.9)”. For the same compound, the glucagon gene expression (24 hrs) was “+++ (detectable at less than 35 cycles RT-PCR with SE less than 0.9)”, the “HNF (HNF-3 beta) gene expression” value (48 hrs) was “nd (not detectable at >40 cycles by RT-PCR)” and the Insulin gene expression (48 hrs) was “nd (not detectable at >40 cycles by RT-PCR)”. For the same compound, the Pdx-1 gene expression (48 hrs) was “nd (not detectable at >40 cycles by RT-PCR)”, the glucagon gene expression (48 hrs) was “+ (detectable between 35 and 40 cycles RT-PCR)” and the “HNF (HNF-3 beta) gene expression” value (72 hrs) was “nd (not detectable at >40 cycles by RT-PCR)”. For the same compound, the Insulin gene expression (72 hrs) was “nd (not detectable at >40 cycles by RT-PCR)”, the Pdx-1 gene expression (72 hrs) was “nd (not detectable at >40 cycles by RT-PCR)” and the glucagon gene expression (72 hrs) was “nd (not detectable at >40 cycles by RT-PCR)”. For the same compound, the “HNF (HNF-3 beta) gene expression” value (96 hrs) was “nd (not detectable at >40 cycles by RT-PCR)”, the Insulin gene expression (96 hrs) was “nd (not detectable at >40 cycles by RT-PCR)” and the Pdx-1 gene expression (96 hrs) was “nd (not detectable at >40 cycles by RT-PCR)”. The glucagon gene expression (96 hrs) was “nd (not detectable at >40 cycles by RT-PCR)”, the “HNF (HNF-3 beta) gene expression” value (120 hrs) was “nd (not detectable at >40 cycles by RT-PCR)” and the Insulin gene expression (120 hrs) was “nd (not detectable at >40 cycles by RT-PCR)”. The Pdx-1 gene expression (120 hrs) was “nd (not detectable at >40 cycles by RT-PCR)”, the glucagon gene expression (120 hrs) was “nd (not detectable at >40 cycles by RT-PCR)” and the “HNF (HNF-3 beta) gene expression” value (144 hrs) was “nd (not detectable at >40 cycles by RT-PCR)”. For the same compound, the Insulin gene expression (144 hrs) was “nd (not detectable at >40 cycles by RT-PCR)”, the Pdx-1 gene expression (144 hrs) was “nd (not detectable at >40 cycles by RT-PCR)” and the glucagon gene expression (144 hrs) was “nd (not detectable at >40 cycles by RT-PCR)”.
